Reference: the NIST ThermoML archive (doi:10.1016/j.jct.2016.06.012)
Values joined by “and” are separate entries in the source; they are usually repeats but may differ in a detail not shown here. Equal entries are not always repeated.

Columns and labels:
[1] = xn = mol fraction of the nth substance listed; conditions: 100 kPa, Liquid, x2 = 0; for viscosity: Capillary tube (Ostwald / Ubbelohde) method; for mass density: Vibrating tube method

CCCCn1cc[n+](C)c1C.O=S(=O)([N-]S(=O)(=O)C(F)(F)F)C(F)(F)F
100 kPa, Liquid
Conditions | mass density, Vibrating tube method [kg/m3] | viscosity, Capillary tube (Ostwald / Ubbelohde) method [mPa·s]
293.15 K | 1423.72 | 133.59
298.15 K | 1419.13 | 101.34
303.15 K | 1414.52 | 77.86
308.15 K | 1409.91 | 61.73
313.15 K | 1405.31 | 49.77
318.15 K | 1400.7 | 40.7
323.15 K | 1396.13 | 33.69

CCC[n+]1ccn(C)c1C.O=S(=O)([N-]S(=O)(=O)C(F)(F)F)C(F)(F)F
100 kPa, Liquid
Conditions | mass density, Vibrating tube method [kg/m3] | viscosity, Capillary tube (Ostwald / Ubbelohde) method
293.15 K | 1459.14 | 121.7 mPa·s
298.15 K | 1454.44 | 92.8 mPa·s
303.15 K | 1449.72 | 72.1 mPa·s and 71.1 mPa·s
308.15 K | 1445 | 57.76 mPa·s
313.15 K | 1440.28 | 46.53 mPa·s
318.15 K | 1435.57 | 38.4 mPa·s
323.15 K | 1430.87 | 31.89 mPa·s

CCn1cc[n+](C)c1C.O=S(=O)([N-]S(=O)(=O)C(F)(F)F)C(F)(F)F
100 kPa
Conditions | mass density [kg/m3] | viscosity [mPa·s]
293.15 K, Metastable liquid, Capillary tube (Ostwald / Ubbelohde) method | – | 89.27
293.15 K, Metastable liquid, Vibrating tube method | 1496.32 | –
298.15 K, Metastable liquid, Capillary tube (Ostwald / Ubbelohde) method | – | 70.77
298.15 K, Metastable liquid, Vibrating tube method | 1491.47 | –
303.15 K, Capillary tube (Ostwald / Ubbelohde) method, Liquid | – | 57.02
303.15 K, Vibrating tube method, Liquid | 1486.67 | –
308.15 K, Capillary tube (Ostwald / Ubbelohde) method, Liquid | – | 46.6
308.15 K, Vibrating tube method, Liquid | 1481.87 | –
313.15 K, Capillary tube (Ostwald / Ubbelohde) method, Liquid | – | 38.62
313.15 K, Vibrating tube method, Liquid | 1477.09 | –
318.15 K, Capillary tube (Ostwald / Ubbelohde) method, Liquid | – | 32.33
318.15 K, Vibrating tube method, Liquid | 1472.32 | –
323.15 K, Capillary tube (Ostwald / Ubbelohde) method, Liquid | – | 27.06
323.15 K, Vibrating tube method, Liquid | 1467.56 | –

O=C1CCCO1 [γ-butyrolactone] + CCCCn1cc[n+](C)c1C.O=S(=O)([N-]S(=O)(=O)C(F)(F)F)C(F)(F)F
[1]
Conditions | mass density [kg/m3] | viscosity [mPa·s]
293.15 K | 1129.49 | 1.86
298.15 K | 1124.59 | 1.71
303.15 K | 1119.68 | 1.58
308.15 K | 1114.78 | 1.47
313.15 K | 1109.87 | 1.37
318.15 K | 1104.96 | 1.28
323.15 K | 1100.05 | 1.2

O=C1CCCO1 [γ-butyrolactone] + CCC[n+]1ccn(C)c1C.O=S(=O)([N-]S(=O)(=O)C(F)(F)F)C(F)(F)F
[1]
Conditions | mass density [kg/m3] | viscosity [mPa·s]
293.15 K | 1129.49 | 1.86
298.15 K | 1124.59 | 1.71
303.15 K | 1119.68 | 1.58
308.15 K | 1114.78 | 1.47
313.15 K | 1109.87 | 1.37
318.15 K | 1104.96 | 1.28
323.15 K | 1100.05 | 1.2

O=C1CCCO1 [γ-butyrolactone] + CCn1cc[n+](C)c1C.O=S(=O)([N-]S(=O)(=O)C(F)(F)F)C(F)(F)F
[1]
Conditions | mass density [kg/m3] | viscosity [mPa·s]
293.15 K | 1129.49 | 1.86
298.15 K | 1124.59 | 1.71
303.15 K | 1119.68 | 1.58
308.15 K | 1114.78 | 1.47
313.15 K | 1109.87 | 1.37
318.15 K | 1104.96 | 1.28
323.15 K | 1100.05 | 1.2
